Data reported in ChEMBL document CHEMBL1156794, “Synthesis and antimicrobial evaluation of amphiphilic neamine derivatives” (J Med Chem, 2010).
Converted amounts (≈) assume the structure as drawn.

Key:
Staphylococcus aureus [1] = experiment: Antibacterial activity against MsrA pump expressing Staphylococcus aureus after 24 hrs by geometric microdilution method; format: functional
Staphylococcus aureus [2] = experiment: Antibacterial activity against aminoglycoside-6'-N-acetyltransferase/2''-O-phosphoryltransferase expressing Staphylococcus aureus after 24 hrs by geometric microdilution method; format: functional
Staphylococcus aureus [3] = experiment: Antibacterial activity against aminoglycoside-3'-O-phosphoryltransferase expressing Staphylococcus aureus after 24 hrs by geometric microdilution method; format: functional
Staphylococcus aureus [4] = experiment: Antibacterial activity against aminoglycoside-4'-O-phosphoryltransferase expressing Staphylococcus aureus after 24 hrs by geometric microdilution method; format: functional
Staphylococcus aureus [5] = experiment: Antibacterial activity against Staphylococcus aureus ATCC 25923 after 24 hrs by geometric microdilution method; format: functional; conditions: ATCC 25923, 24 h
Staphylococcus aureus [6] = experiment: Antibacterial activity against NorA pump expressing Staphylococcus aureus after 24 hrs by geometric microdilution method; format: functional
Acinetobacter lwoffii [7] = experiment: Antibacterial activity against […] expressing Acinetobacter lwoffii AI.88-483 after 24 hrs by geometric microdilution method; format: functional
Pseudomonas aeruginosa [8] = experiment: Antibacterial activity against Pseudomonas aeruginosa ATCC 27853 after 24 hrs by geometric microdilution method; format: functional
Pseudomonas aeruginosa [9] = experiment: Antibacterial activity against AAC6'-2a expressing Pseudomonas aeruginosa F03 after 24 hrs by geometric microdilution method; format: functional
Pseudomonas aeruginosa [10] = experiment: Antibacterial activity against MexXY expressing Pseudomonas aeruginosa PT629 after 24 hrs by geometric microdilution method; format: functional
Klebsiella pneumoniae = experiment: Antibacterial activity against Klebsiella pneumoniae ATCC 700603 after 24 hrs by geometric microdilution method; format: functional
Escherichia coli [11] = experiment: Antibacterial activity against AAC6'-2b expressing Escherichia coli PAZ505H8101 after 24 hrs by geometric microdilution method; format: functional
Escherichia coli [12] = experiment: Antibacterial activity against ANT2'-2a expressing Escherichia coli L58058.1 after 24 hrs by geometric microdilution method; format: functional
Pseudomonas aeruginosa [13] = experiment: Antibacterial activity against Pseudomonas aeruginosa PAO1 after 24 hrs by geometric microdilution method; format: functional
Pseudomonas aeruginosa [14] = experiment: Antibacterial activity against MexCD expressing Pseudomonas aeruginosa PA01 after 24 hrs by geometric microdilution method; format: functional
Pseudomonas aeruginosa [15] = experiment: Antibacterial activity against MexEF expressing Pseudomonas aeruginosa PA03 after 24 hrs by geometric microdilution method; format: functional
Pseudomonas aeruginosa [16] = experiment: Antibacterial activity against MexAB expressing Pseudomonas aeruginosa PA21 after 24 hrs by geometric microdilution method; format: functional
Pseudomonas aeruginosa [17] = experiment: Antibacterial activity against MexXY expressing Pseudomonas aeruginosa PA22 after 24 hrs by geometric microdilution method; format: functional
Pseudomonas aeruginosa [18] = experiment: Antibacterial activity against TriABC expressing MexAB, MexCD, MexEF, MexXY deleted Pseudomonas aeruginosa PA405 after 24 hrs by geometric microdilution method; format: functional
Pseudomonas aeruginosa [19] = experiment: Antibacterial activity against MexAB, MexCD, MexEF, MexXY, TriABC deleted Pseudomonas aeruginosa PA406 after 24 hrs by geometric microdilution method; format: functional
Citrobacter amalonaticus = experiment: Antibacterial activity against R-methylase expressing Citrobacter amalonaticus 06AB0010 after 24 hrs by geometric microdilution method; format: functional
Escherichia coli [20] = experiment: Antibacterial activity against R-methylase expressing Escherichia coli 06AB003 after 24 hrs by geometric microdilution method; format: functional
Klebsiella aerogenes = experiment: Antibacterial activity against R-methylase expressing Enterobacter aerogenes 06AB008 after 24 hrs by geometric microdilution method; format: functional
Staphylococcus aureus [21] = experiment: Antibacterial activity against methicillin-resistant Staphylococcus aureus ATCC 33592 clinical isolate after 24 hrs by geometric microdilution method; format: functional; conditions: ATCC 33592, 24 h
Staphylococcus aureus [22] = experiment: Antibacterial activity against vancomycin-resistant Staphylococcus aureus VRS-2 after 24 hrs by geometric microdilution method; format: functional; conditions: VRS-2, 24 h
Acinetobacter lwoffii [23] = experiment: microbe, parasite or virus in culture; conditions: ATCC 17925, 24 h
Description: Antibacterial activity against Acinetobacter lwoffii ATCC 17925 after 24 hrs by geometric microdilution method

Escherichia coli [24] = experiment: microbe, parasite or virus in culture; conditions: ATCC 25922, 24 h
Description: Antibacterial activity against Escherichia coli ATCC 25922 after 24 hrs by geometric microdilution method

NC[C@H]1O[C@H](O[C@H]2[C@H](O)[C@@H](OCc3ccccn3)[C@H](N)C[C@@H]2N)[C@H](N)[C@@H](OCc2ccccn2)[C@@H]1O
MIC (Staphylococcus aureus [1]): > 128 µg/mL | MIC (Staphylococcus aureus [2]): > 128 µg/mL | MIC (Staphylococcus aureus [3]): > 128 µg/mL | MIC (Staphylococcus aureus [4]): > 128 µg/mL | MIC (Staphylococcus aureus [5]): > 128 µg/mL | MIC (Staphylococcus aureus [6]): > 128 µg/mL

GENTAMICIN
MIC (Acinetobacter lwoffii [7]): 4 µg/mL | MIC (Pseudomonas aeruginosa [8]): 1 µg/mL | MIC (Pseudomonas aeruginosa [9]): > 28 µg/mL | MIC (Pseudomonas aeruginosa [10]): 4 µg/mL | MIC (Klebsiella pneumoniae): 8 µg/mL | MIC (Escherichia coli [11]): 1 µg/mL | MIC (Escherichia coli [12]): 64 µg/mL | MIC (Pseudomonas aeruginosa [13]): 2 µg/mL | MIC (Pseudomonas aeruginosa [14]): 1 µg/mL | MIC (Pseudomonas aeruginosa [15]): 1 µg/mL | MIC (Pseudomonas aeruginosa [16]): 1 µg/mL | MIC (Pseudomonas aeruginosa [17]): 4 µg/mL | MIC (Pseudomonas aeruginosa [18]): < 0.125 µg/mL | MIC (Pseudomonas aeruginosa [19]): < 0.125 µg/mL | MIC (Citrobacter amalonaticus): > 128 µg/mL | MIC (Escherichia coli [20]): > 128 µg/mL | MIC (Klebsiella aerogenes): > 128 µg/mL

NC[C@H]1O[C@H](O[C@H]2[C@H](O)[C@@H](O)[C@H](N)C[C@@H]2N)[C@H](N)[C@@H](O)[C@@H]1OCc1ccc2ccccc2c1
MIC (Staphylococcus aureus [1]): > 128 µg/mL | MIC (Staphylococcus aureus [2]): > 128 µg/mL | MIC (Staphylococcus aureus [3]): > 128 µg/mL | MIC (Staphylococcus aureus [4]): > 128 µg/mL | MIC (Staphylococcus aureus [5]): > 128 µg/mL | MIC (Staphylococcus aureus [6]): > 128 µg/mL

NC[C@H]1O[C@H](O[C@H]2[C@H](O)[C@@H](OCc3ccc4ccccc4c3)[C@H](N)C[C@@H]2N)[C@H](N)[C@@H](O)[C@@H]1O
MIC (Staphylococcus aureus [1]): > 128 µg/mL | MIC (Staphylococcus aureus [2]): > 128 µg/mL | MIC (Staphylococcus aureus [3]): > 128 µg/mL | MIC (Staphylococcus aureus [4]): > 128 µg/mL | MIC (Staphylococcus aureus [21]): > 128 µg/mL | MIC (Staphylococcus aureus [5]): > 128 µg/mL | MIC (Staphylococcus aureus [6]): > 128 µg/mL

NC[C@H]1O[C@H](O[C@H]2[C@H](O)[C@@H](OCc3ccc4ccccc4n3)[C@H](N)C[C@@H]2N)[C@H](N)[C@@H](OCc2ccc3ccccc3n2)[C@@H]1O
MIC (Staphylococcus aureus [1]): > 128 µg/mL | MIC (Staphylococcus aureus [2]): > 128 µg/mL | MIC (Staphylococcus aureus [3]): > 128 µg/mL | MIC (Staphylococcus aureus [4]): > 128 µg/mL | MIC (Staphylococcus aureus [5]): > 128 µg/mL | MIC (Staphylococcus aureus [6]): > 128 µg/mL

NC[C@H]1O[C@H](O[C@H]2[C@H](O)[C@@H](OCc3ccccc3)[C@H](N)C[C@@H]2N)[C@H](N)[C@@H](OCc2ccccc2)[C@@H]1OCc1ccccc1
MIC (Staphylococcus aureus [1]): > 128 µg/mL | MIC (Staphylococcus aureus [2]): > 128 µg/mL | MIC (Staphylococcus aureus [3]): > 128 µg/mL | MIC (Staphylococcus aureus [4]): > 128 µg/mL | MIC (Staphylococcus aureus [21]): > 128 µg/mL | MIC (Staphylococcus aureus [22]): 64 µg/mL (≈ 108 µM) | MIC (Acinetobacter lwoffii [7]; AI.88-483, 24 h): > 128 µg/mL | MIC (Pseudomonas aeruginosa [8]; ATCC 27853, 24 h): > 128 µg/mL | MIC (Pseudomonas aeruginosa [9]; F03, 24 h): > 128 µg/mL | MIC (Pseudomonas aeruginosa [10]; PT629, 24 h): > 128 µg/mL | MIC (Klebsiella pneumoniae; ATCC 700603, 24 h): > 128 µg/mL | MIC (Escherichia coli [11]; PAZ505H8101, 24 h): > 128 µg/mL | MIC (Escherichia coli [12]; L58058.1, 24 h): > 128 µg/mL | MIC (Pseudomonas aeruginosa [13]; PAO1, 24 h): > 128 µg/mL | MIC (Pseudomonas aeruginosa [14]; PA01, 24 h): > 128 µg/mL | MIC (Pseudomonas aeruginosa [15]; PA03, 24 h): > 128 µg/mL | MIC (Pseudomonas aeruginosa [16]; PA21, 24 h): > 128 µg/mL | MIC (Pseudomonas aeruginosa [17]; PA22, 24 h): > 128 µg/mL | MIC (Pseudomonas aeruginosa [18]; PA405, 24 h): 64 µg/mL (≈ 108 µM) | MIC (Pseudomonas aeruginosa [19]; PA406, 24 h): 64 µg/mL (≈ 108 µM) | MIC (Staphylococcus aureus [5]): > 128 µg/mL | MIC (Staphylococcus aureus [6]): > 128 µg/mL | MIC (Acinetobacter lwoffii [23]): 128 µg/mL (≈ 216 µM) | MIC (Escherichia coli [24]): > 128 µg/mL

NC[C@H]1O[C@H](O[C@H]2[C@H](O)[C@@H](O)[C@H](N)C[C@@H]2N)[C@H](N)[C@@H](OCc2ccc3ccccc3c2)[C@@H]1OCc1ccc2ccccc2c1
MIC (Staphylococcus aureus [1]): 8 µg/mL (≈ 13.3 µM) | MIC (Staphylococcus aureus [2]): 8 µg/mL (≈ 13.3 µM) | MIC (Staphylococcus aureus [3]): 4 µg/mL (≈ 6.64 µM) | MIC (Staphylococcus aureus [4]): 8 µg/mL (≈ 13.3 µM) | MIC (Staphylococcus aureus [21]): 8 µg/mL (≈ 13.3 µM) | MIC (Staphylococcus aureus [22]): 4 µg/mL (≈ 6.64 µM) | MIC (Acinetobacter lwoffii [7]; AI.88-483, 24 h): > 128 µg/mL | MIC (Pseudomonas aeruginosa [8]; ATCC 27853, 24 h): 32 µg/mL (≈ 53.1 µM) | MIC (Pseudomonas aeruginosa [9]; F03, 24 h): > 128 µg/mL | MIC (Pseudomonas aeruginosa [10]; PT629, 24 h): > 128 µg/mL | MIC (Klebsiella pneumoniae; ATCC 700603, 24 h): > 128 µg/mL | MIC (Escherichia coli [11]; PAZ505H8101, 24 h): 16 µg/mL (≈ 26.5 µM) | MIC (Escherichia coli [12]; L58058.1, 24 h): 16 µg/mL (≈ 26.5 µM) | MIC (Pseudomonas aeruginosa [13]; PAO1, 24 h): 64 µg/mL (≈ 106 µM) | MIC (Pseudomonas aeruginosa [14]; PA01, 24 h): 16 µg/mL (≈ 26.5 µM) | MIC (Pseudomonas aeruginosa [15]; PA03, 24 h): 8 µg/mL (≈ 13.3 µM) | MIC (Pseudomonas aeruginosa [16]; PA21, 24 h): 64 µg/mL (≈ 106 µM) | MIC (Pseudomonas aeruginosa [17]; PA22, 24 h): > 128 µg/mL | MIC (Pseudomonas aeruginosa [18]; PA405, 24 h): 8 µg/mL (≈ 13.3 µM) | MIC (Pseudomonas aeruginosa [19]; PA406, 24 h): 8 µg/mL (≈ 13.3 µM) | MIC (Staphylococcus aureus [5]): 4 µg/mL (≈ 6.64 µM) | MIC (Staphylococcus aureus [6]): 8 µg/mL (≈ 13.3 µM) | MIC (Acinetobacter lwoffii [23]): 8 µg/mL (≈ 13.3 µM) | MIC (Escherichia coli [24]): 32 µg/mL (≈ 53.1 µM)

NC[C@H]1O[C@H](O[C@H]2[C@H](O)[C@@H](OCc3ccc4ccccc4n3)[C@H](N)C[C@@H]2N)[C@H](N)[C@@H](OCc2ccc3ccccc3n2)[C@@H]1OCc1ccc2ccccc2n1
MIC (Staphylococcus aureus [1]): > 128 µg/mL | MIC (Staphylococcus aureus [2]): 128 µg/mL (≈ 172 µM) | MIC (Staphylococcus aureus [3]): 64 µg/mL (≈ 85.8 µM) | MIC (Staphylococcus aureus [4]): > 128 µg/mL | MIC (Staphylococcus aureus [21]): 64 µg/mL (≈ 85.8 µM) | MIC (Staphylococcus aureus [22]): 64 µg/mL (≈ 85.8 µM) | MIC (Acinetobacter lwoffii [7]; AI.88-483, 24 h): > 128 µg/mL | MIC (Pseudomonas aeruginosa [8]; ATCC 27853, 24 h): > 128 µg/mL | MIC (Pseudomonas aeruginosa [9]; F03, 24 h): > 128 µg/mL | MIC (Pseudomonas aeruginosa [10]; PT629, 24 h): > 128 µg/mL | MIC (Klebsiella pneumoniae; ATCC 700603, 24 h): > 128 µg/mL | MIC (Escherichia coli [11]; PAZ505H8101, 24 h): > 128 µg/mL | MIC (Escherichia coli [12]; L58058.1, 24 h): > 128 µg/mL | MIC (Pseudomonas aeruginosa [13]; PAO1, 24 h): > 128 µg/mL | MIC (Pseudomonas aeruginosa [14]; PA01, 24 h): > 128 µg/mL | MIC (Pseudomonas aeruginosa [15]; PA03, 24 h): > 128 µg/mL | MIC (Pseudomonas aeruginosa [16]; PA21, 24 h): > 128 µg/mL | MIC (Pseudomonas aeruginosa [17]; PA22, 24 h): > 128 µg/mL | MIC (Pseudomonas aeruginosa [18]; PA405, 24 h): 64 µg/mL (≈ 85.8 µM) | MIC (Pseudomonas aeruginosa [19]; PA406, 24 h): 64 µg/mL (≈ 85.8 µM) | MIC (Staphylococcus aureus [5]): 128 µg/mL (≈ 172 µM) | MIC (Staphylococcus aureus [6]): > 128 µg/mL | MIC (Acinetobacter lwoffii [23]): 128 µg/mL (≈ 172 µM) | MIC (Escherichia coli [24]): > 128 µg/mL
